Results: publication PMC5218480 (PLoS ONE, 2017)

System: MV-4-11 cells
Assay: Gene expression microarray analysis (Affymetrix PrimeView) and GSEA
Format: cell-based, human
Parameters: RFU PODN (11730768_x_at) / Fold change /veh PODN (11730768_x_at) / RFU LINC00158 (11744669_a_at) / Fold change /veh LINC00158 (11744669_a_at) / RFU DUSP10 (11751237_a_at) / Fold change /veh DUSP10 (11751237_a_at) / RFU ID3 (11757404_x_at) / Fold change /veh ID3 (11757404_x_at) / RFU PLEKHG5 (11737974_s_at) / Fold change /veh PLEKHG5 (11737974_s_at) / RFU LRRC4B (11730491_at) / Fold change /veh LRRC4B (11730491_at) / RFU GIMAP4 (11747438_a_at) / Fold change /veh GIMAP4 (11747438_a_at) / RFU KRT8 (11758183_x_at) / Fold change /veh KRT8 (11758183_x_at) / RFU CNN1 (11734310_a_at) / Fold change /veh CNN1 (11734310_a_at) / RFU VPS37D (11726825_at) / Fold change /veh VPS37D (11726825_at) / RFU C10orf10 (11716522_x_at) / Fold change /veh C10orf10 (11716522_x_at) / RFU KIR2DL2 /// KIR2DL4 /// KIR2DL5A /// KIR2DL5B /// KIR2DS1 /// KIR2DS2 /// KIR2DS3 /// KIR2DS4 /// KIR3DL3 /// KIR3DL3 /// KIR3DS1 (11738374_at) / Fold change /veh KIR2DL2 /// KIR2DL4 /// KIR2DL5A /// KIR2DL5B /// KIR2DS1 /// KIR2DS2 /// KIR2DS3 /// KIR2DS4 /// KIR3DL3 /// KIR3DL3 /// KIR3DS1 (11738374_at) / RFU C1QL1 (11718748_at) / Fold change /veh C1QL1 (11718748_at) / RFU TMPRSS4 (11747572_a_at) / Fold change /veh TMPRSS4 (11747572_a_at) / RFU HAMP (11756126_x_at) / Fold change /veh HAMP (11756126_x_at) / RFU RNFT2 (11725882_a_at) / Fold change /veh RNFT2 (11725882_a_at) / RFU NR4A2 (11747474_a_at) / Fold change /veh NR4A2 (11747474_a_at) / RFU ABCC12 (11746883_a_at) / Fold change /veh ABCC12 (11746883_a_at) / RFU TMEM136 (11760407_x_at) / Fold change /veh TMEM136 (11760407_x_at) / RFU CLDN22 /// WWC2 (11732394_at) / Fold change /veh CLDN22 /// WWC2 (11732394_at) / RFU HLA-DPB1 (11760878_x_at) / Fold change /veh HLA-DPB1 (11760878_x_at) / RFU SPINT1 (11716480_a_at) / Fold change /veh SPINT1 (11716480_a_at) / RFU GAP43 (11754022_s_at) / Fold change /veh GAP43 (11754022_s_at) / RFU A4GNT (11735810_at) / Fold change /veh A4GNT (11735810_at) / RFU PRB3 (11715151_x_at) / Fold change /veh PRB3 (11715151_x_at) / RFU TUBB4B (11761932_at) / Fold change /veh TUBB4B (11761932_at) / RFU CAPN14 (11732068_a_at) / Fold change /veh CAPN14 (11732068_a_at) / RFU TMCC2 (11721928_a_at) / Fold change /veh TMCC2 (11721928_a_at) / RFU IRGQ (11745062_a_at) / Fold change /veh IRGQ (11745062_a_at) / RFU FAM174B (11720279_a_at) / Fold change /veh FAM174B (11720279_a_at) / RFU TMPRSS4 (11748680_a_at) / Fold change /veh TMPRSS4 (11748680_a_at) / RFU FAM212B (11763350_a_at) / Fold change /veh FAM212B (11763350_a_at) / RFU PLEKHG5 (11743358_a_at) / Fold change /veh PLEKHG5 (11743358_a_at) / RFU ZSCAN30 (11745921_a_at) / Fold change /veh ZSCAN30 (11745921_a_at) / RFU CMKLR1 (11741424_a_at) / Fold change /veh CMKLR1 (11741424_a_at) / RFU LOC101060620 /// MAPK8IP1 (11723275_at) / Fold change /veh LOC101060620 /// MAPK8IP1 (11723275_at) / RFU SPTSSB (11747773_x_at) / Fold change /veh SPTSSB (11747773_x_at) / RFU PRSS12 (11739890_at) / Fold change /veh PRSS12 (11739890_at) / RFU BIN1 (11741810_x_at) / Fold change /veh BIN1 (11741810_x_at) / RFU WNT11 (11732464_a_at) / Fold change /veh WNT11 (11732464_a_at) / RFU C10orf10 (11716521_a_at) / Fold change /veh C10orf10 (11716521_a_at) / RFU C5orf56 (11738089_at) / Fold change /veh C5orf56 (11738089_at) / RFU CYB561 (11721691_x_at) / Fold change /veh CYB561 (11721691_x_at) / RFU ANKRD19P (11752326_a_at) / Fold change /veh ANKRD19P (11752326_a_at) / RFU OR2T12 /// OR2T33 /// OR2T8 (11738714_s_at) / Fold change /veh OR2T12 /// OR2T33 /// OR2T8 (11738714_s_at) / RFU VCAN (11748164_a_at) / Fold change /veh VCAN (11748164_a_at) / RFU JSRP1 (11732532_at) / Fold change /veh JSRP1 (11732532_at) / RFU KRTAP10-11 (11738290_x_at) / Fold change /veh KRTAP10-11 (11738290_x_at) / RFU MYO3A (11730013_a_at) / Fold change /veh MYO3A (11730013_a_at) / RFU EBF3 (11725865_a_at) / Fold change /veh EBF3 (11725865_a_at) / RFU CAMK2N1 (11719241_x_at) / Fold change /veh CAMK2N1 (11719241_x_at) / RFU C5orf56 (11738088_a_at) / Fold change /veh C5orf56 (11738088_a_at) / RFU OLFML3 (11715873_a_at) / Fold change /veh OLFML3 (11715873_a_at) / RFU LOC100653217 /// NTM (11731650_a_at) / Fold change /veh LOC100653217 /// NTM (11731650_a_at) / RFU MAPK11 (11762145_a_at) / Fold change /veh MAPK11 (11762145_a_at) / RFU FIZ1 (11724087_x_at) / Fold change /veh FIZ1 (11724087_x_at) / RFU OASL (11726364_x_at) / Fold change /veh OASL (11726364_x_at) / RFU SOX15 (11748057_x_at) / Fold change /veh SOX15 (11748057_x_at) / RFU CD79A (11719716_a_at) / Fold change /veh CD79A (11719716_a_at) / RFU HIST1H1D (11736915_at) / Fold change /veh HIST1H1D (11736915_at) / RFU CASKIN2 (11723855_a_at) / Fold change /veh CASKIN2 (11723855_a_at) / RFU LOC730098 (11760151_x_at) / Fold change /veh LOC730098 (11760151_x_at) / RFU OR4N2 (11742367_at) / Fold change /veh OR4N2 (11742367_at) / RFU PRRT2 (11749266_a_at) / Fold change /veh PRRT2 (11749266_a_at) / RFU SNX32 (11753110_a_at) / Fold change /veh SNX32 (11753110_a_at) / RFU CDHR5 (11726645_a_at) / Fold change /veh CDHR5 (11726645_a_at) / RFU RCAN1 (11760418_a_at) / Fold change /veh RCAN1 (11760418_a_at) / RFU FAM167A (11723789_a_at) / Fold change /veh FAM167A (11723789_a_at) / RFU FAM26E (11764081_at) / Fold change /veh FAM26E (11764081_at) / RFU ISYNA1 (11749810_s_at) / Fold change /veh ISYNA1 (11749810_s_at) / RFU ACY1 (11761880_at) / Fold change /veh ACY1 (11761880_at) / RFU 11764098_at / Fold change /veh 11764098_at / RFU SAMD14 (11745864_x_at) / Fold change /veh SAMD14 (11745864_x_at) / RFU NPB (11741838_a_at) / Fold change /veh NPB (11741838_a_at) / RFU TMPRSS6 (11731388_a_at) / Fold change /veh TMPRSS6 (11731388_a_at) / RFU KRTAP10-2 (11738614_at) / Fold change /veh KRTAP10-2 (11738614_at) / RFU ARHGAP8 /// PRR5-ARHGAP8 (11727945_x_at) / Fold change /veh ARHGAP8 /// PRR5-ARHGAP8 (11727945_x_at) / RFU KRTAP5-7 /// NADSYN1 (11734609_at) / Fold change /veh KRTAP5-7 /// NADSYN1 (11734609_at) / RFU RASL12 (11751679_a_at) / Fold change /veh RASL12 (11751679_a_at) / RFU CDKN2B (11736163_a_at) / Fold change /veh CDKN2B (11736163_a_at) / RFU PRF1 (11729649_at) / Fold change /veh PRF1 (11729649_at) / RFU, ZNF638 /// ZNF638-IT1 / Fold change vs veh, ZNF638 /// ZNF638-IT1 / RFU, PANK3 / Fold change vs veh, PANK3 / RFU, SH3YL1 / Fold change vs veh, SH3YL1 / RFU, ZEB2 / Fold change vs veh, ZEB2 / RFU, NRIP1 / Fold change vs veh, NRIP1 / RFU, PTTG1IP / Fold change vs veh, PTTG1IP / RFU, CAPN2 / Fold change vs veh, CAPN2 / RFU, MED14 / Fold change vs veh, MED14 / RFU, SNORA58 / Fold change vs veh, SNORA58 / RFU, C1orf63 / Fold change vs veh, C1orf63 / RFU, LRRFIP1 / Fold change vs veh, LRRFIP1 / RFU, NDUFAF7 / Fold change vs veh, NDUFAF7 / RFU, SLC12A2 / Fold change vs veh, SLC12A2 / RFU, IBTK / Fold change vs veh, IBTK / RFU, ESF1 / Fold change vs veh, ESF1 / Fold change vs veh, TMEM50B / RFU, TAOK1 / Fold change vs veh, TAOK1 / RFU, ACBD3 / Fold change vs veh, ACBD3 / RFU, TMA16 / Fold change vs veh, TMA16 / RFU, RWDD3 / Fold change vs veh, RWDD3 / RFU, BCAT1 / Fold change vs veh, BCAT1 / RFU, EDEM3 / Fold change vs veh, EDEM3 / RFU, TMEM33 / Fold change vs veh, TMEM33 / RFU, WDR75 / Fold change vs veh, WDR75 / RFU, AHCTF1 / Fold change vs veh, AHCTF1 / RFU, TFRC / Fold change vs veh, TFRC / RFU, ZDHHC17 / Fold change vs veh, ZDHHC17 / RFU, NOM1 / Fold change vs veh, NOM1 / RFU, ARL8B / Fold change vs veh, ARL8B / RFU, ZBTB11 / Fold change vs veh, ZBTB11 / RFU, TAMM41 / Fold change vs veh, TAMM41 / RFU, KIAA1704 /// LOC100996395 / Fold change vs veh, KIAA1704 /// LOC100996395 / RFU, ING1 / Fold change vs veh, ING1 / RFU, TRMT61B / Fold change vs veh, TRMT61B / RFU, FUBP3 / Fold change vs veh, FUBP3 / RFU, TP53 / Fold change vs veh, TP53 / RFU, TNKS2 / Fold change vs veh, TNKS2 / RFU, ZFP14 / Fold change vs veh, ZFP14 / RFU, ACTR2 / Fold change vs veh, ACTR2 / RFU, PPP3R1 / Fold change vs veh, PPP3R1 / RFU, PIK3R1 / Fold change vs veh, PIK3R1 / RFU, HNRNPA1 / Fold change vs veh, HNRNPA1 / RFU, RNF170 / Fold change vs veh, RNF170 / RFU, ZNF28 / Fold change vs veh, ZNF28 / RFU, RNGTT / Fold change vs veh, RNGTT / RFU, OGT / Fold change vs veh, OGT / RFU, BRD1 / Fold change vs veh, BRD1 / RFU, MARS / Fold change vs veh, MARS / RFU, ZNF655 / Fold change vs veh, ZNF655 / RFU, FAHD1 / Fold change vs veh, FAHD1 / RFU, BDP1 / Fold change vs veh, BDP1 / RFU, LRRCC1 / Fold change vs veh, LRRCC1 / RFU, ARID1A / Fold change vs veh, ARID1A / RFU, ZNF146 / Fold change vs veh, ZNF146 / RFU, ZNF330 / Fold change vs veh, ZNF330 / RFU, GPN3 / Fold change vs veh, GPN3 / RFU, C9orf123 / Fold change vs veh, C9orf123 / RFU, N4BP2L2 / Fold change vs veh, N4BP2L2 / RFU, ARFIP1 / Fold change vs veh, ARFIP1 / RFU, FAM179B / Fold change vs veh, FAM179B / RFU, BCL10 / Fold change vs veh, BCL10 / RFU, UHRF1BP1L / Fold change vs veh, UHRF1BP1L / RFU, BET1 / Fold change vs veh, BET1 / RFU, CNOT2 / Fold change vs veh, CNOT2 / RFU, ZNF268 / Fold change vs veh, ZNF268 / Fold change vs veh, ZNF507 / RFU, DGCR2 / Fold change vs veh, DGCR2 / RFU, WDSUB1 / Fold change vs veh, WDSUB1 / Fold change vs veh, HSP90B1 /// MIR3652 / RFU, ADSS / Fold change vs veh, ADSS / RFU, GK / Fold change vs veh, GK / RFU, ZNF148 / Fold change vs veh, ZNF148 / RFU, TAF9 / Fold change vs veh, TAF9 / RFU, SLC1A5 / Fold change vs veh, SLC1A5 / RFU, SLMO2 / Fold change vs veh, SLMO2 / RFU, ABCC4 / Fold change vs veh, ABCC4 / RFU, LOC101060439 /// RAP1B / Fold change vs veh, LOC101060439 /// RAP1B / RFU, RFX7 / Fold change vs veh, RFX7 / RFU, GTPBP10 / Fold change vs veh, GTPBP10 / RFU, CNEP1R1 / Fold change vs veh, CNEP1R1 / RFU, BIVM-ERCC5 /// ERCC5 / Fold change vs veh, BIVM-ERCC5 /// ERCC5 / RFU, ILF3 / Fold change vs veh, ILF3 / RFU 11762660_at / Fold change /veh 11762660_at / RFU VCAN (11757783_s_at) / Fold change /veh VCAN (11757783_s_at) / RFU DDX43 (11728927_at) / Fold change /veh DDX43 (11728927_at) / RFU KRT8 (11758188_x_at) / Fold change /veh KRT8 (11758188_x_at) / RFU NKD1 (11759106_at) / Fold change /veh NKD1 (11759106_at) / RFU SRD5A1 (11742802_a_at) / Fold change /veh SRD5A1 (11742802_a_at) / RFU TPSAB1 /// TPSB2 (11721975_s_at) / Fold change /veh TPSAB1 /// TPSB2 (11721975_s_at) / RFU GSTM3 (11746129_a_at) / Fold change /veh GSTM3 (11746129_a_at) / RFU IL23R (11737362_x_at) / Fold change /veh IL23R (11737362_x_at) / RFU TMEM51 (11727254_a_at) / Fold change /veh TMEM51 (11727254_a_at) / RFU PIWIL2 (11732686_x_at) / Fold change /veh PIWIL2 (11732686_x_at) / RFU ORM1 (11744905_x_at) / Fold change /veh ORM1 (11744905_x_at) / RFU CCDC152 (11743942_at) / Fold change /veh CCDC152 (11743942_at) / RFU ECM1 (11717891_a_at) / Fold change /veh ECM1 (11717891_a_at) / RFU IL23R (11748794_a_at) / Fold change /veh IL23R (11748794_a_at) / RFU TNFAIP8L3 (11732012_x_at) / Fold change /veh TNFAIP8L3 (11732012_x_at) / RFU MBOAT4 (11741988_at) / Fold change /veh MBOAT4 (11741988_at) / RFU 11764193_at / Fold change /veh 11764193_at / RFU TMEM53 (11763286_at) / Fold change /veh TMEM53 (11763286_at) / RFU MAGEB2 (11727129_at) / Fold change /veh MAGEB2 (11727129_at) / RFU TMEM200A (11744735_a_at) / Fold change /veh TMEM200A (11744735_a_at) / RFU CCDC152 (11751479_a_at) / Fold change /veh CCDC152 (11751479_a_at) / RFU FAM211A (11726209_a_at) / Fold change /veh FAM211A (11726209_a_at) / RFU RGS16 (11746705_a_at) / Fold change /veh RGS16 (11746705_a_at) / RFU VCAN (11755009_s_at) / Fold change /veh VCAN (11755009_s_at) / RFU RHOB (11743442_s_at) / Fold change /veh RHOB (11743442_s_at) / RFU RGS16 (11720943_a_at) / Fold change /veh RGS16 (11720943_a_at) / RFU RGS16 (11720944_at) / Fold change /veh RGS16 (11720944_at) / RFU, VPS4B / Fold change vs veh, VPS4B / RFU, CREB1 / Fold change vs veh, CREB1 / RFU, DNAJC13 / Fold change vs veh, DNAJC13 / RFU, GNAQ / Fold change vs veh, GNAQ / RFU, CDK5R1 / Fold change vs veh, CDK5R1 / RFU, ZRANB3 / Fold change vs veh, ZRANB3 / RFU, CUL4A / Fold change vs veh, CUL4A / RFU, CCNY / Fold change vs veh, CCNY / RFU, UFL1 / Fold change vs veh, UFL1 / RFU, COG3 / Fold change vs veh, COG3 / RFU, DIAPH2 / Fold change vs veh, DIAPH2 / RFU, SKA2 / Fold change vs veh, SKA2 / RFU, AFF3 / Fold change vs veh, AFF3 / RFU, LMF1 / Fold change vs veh, LMF1 / RFU, IPO11 / Fold change vs veh, IPO11 / RFU, DFFB / Fold change vs veh, DFFB / RFU, FOXP1 / Fold change vs veh, FOXP1 / RFU, CARD8 / Fold change vs veh, CARD8 / RFU, STRN3 / Fold change vs veh, STRN3 / RFU, ADK / Fold change vs veh, ADK / RFU, RASSF2 / Fold change vs veh, RASSF2 / RFU, WIPF1 / Fold change vs veh, WIPF1 / RFU, LARP1B / Fold change vs veh, LARP1B / RFU, RASA1 / Fold change vs veh, RASA1 / RFU, RB1 / Fold change vs veh, RB1 / RFU, PPFIA1 / Fold change vs veh, PPFIA1 / RFU, MAT2A / Fold change vs veh, MAT2A / RFU, CCT5 / Fold change vs veh, CCT5 / RFU, WDR92 / Fold change vs veh, WDR92 / RFU, CUX1 / Fold change vs veh, CUX1 / RFU, TTC7A / Fold change vs veh, TTC7A / RFU, TMEM135 / Fold change vs veh, TMEM135 / RFU, DEPTOR / Fold change vs veh, DEPTOR / RFU, CPM / Fold change vs veh, CPM / RFU, DNAJB6 / Fold change vs veh, DNAJB6 / RFU, CACNA2D3 / Fold change vs veh, CACNA2D3 / RFU, DTX4 / Fold change vs veh, DTX4 / RFU, TFCP2 / Fold change vs veh, TFCP2 / RFU, GMCL1 /// GMCL1P1 / Fold change vs veh, GMCL1 /// GMCL1P1 / RFU, AEBP2 / Fold change vs veh, AEBP2 / RFU, SNHG1 /// SNORD22 /// SNORD25 /// SNORD26 /// SNORD27 /// SNORD28 /// SNORD29 /// SNORD31 / Fold change vs veh, SNHG1 /// SNORD22 /// SNORD25 /// SNORD26 /// SNORD27 /// SNORD28 /// SNORD29 /// SNORD31 / Fold change (Aza/veh), C12orf56 (ProbeSet 11735607_a_at) / Fold change (ACY-1035/veh), C12orf56 (ProbeSet 11735607_a_at) / Fold change (Aza/veh), FGFR1OP (ProbeSet 11751329_s_at) / Fold change (ACY-1035/veh), FGFR1OP (ProbeSet 11751329_s_at) / Fold change (Aza/veh), VPS36 (ProbeSet 11739960_a_at) / Fold change (ACY-1035/veh), VPS36 (ProbeSet 11739960_a_at) / RFU SYPL1 (11715823_x_at) / Fold change /veh SYPL1 (11715823_x_at) / RFU IGFBP7 (11715501_s_at) / Fold change /veh IGFBP7 (11715501_s_at) / RFU REEP3 (11722064_at) / Fold change /veh REEP3 (11722064_at) / RFU IGLL1 (11728026_x_at) / Fold change /veh IGLL1 (11728026_x_at): dose or concentration left out as unconfirmed
Conditions: MV-4-11 cells, 48 hours

Nc1ncn([C@@H]2O[C@H](CO)[C@@H](O)[C@H]2O)c(=O)n1 [azacitidine]
RFU OR4N2 (11742367_at): 68.76 RFU
